Molecules are shown by their SMILES. Results filed as inconclusive are left out. Calls of active or inactive are those of the source.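 Rule for the calls: active = luciferase signal rise whose fitted curve crosses a set activity limit at or below the top valid tested dose; inconclusive = flat fit with 30 to 70% rise, or poor fit; inactive = signal falling, flat within 30%, or crossing above top dose.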

The subject of this experiment is D54 LucT luciferase reporter counterscreen, luminescence, 24 h. In words: reporter signal increase, D54 LucT cells – cell-based, luminescence, cherry pick, counter-screen for N-linked glycosylation inhibitor project, dose response (AID 624404). In general terms: A counterscreen serves to expose hits that act by an unwanted route or on another target.
With `COc1ccc2c(c1)OC[C@H]1[C@H]2N2C(=O)c3ccc(F)cc3NC(=O)[C@@]2(C)[C@H]1c1ccccc1`, the AC35 was 1070 nM.

Consider `NC(=O)CC(NC(=O)Cc1ccc(Br)cc1)c1ccc(NC2CCCC2)c([N+](=O)[O-])c1` (centres undefined), for which the AC35 is 2870 nM.

Take `COc1ccc(S(=O)(=O)N2CCCCC2)cc1NC(=O)c1[nH]c(C)c(C(C)=O)c1C`: the AC35 is 621 nM.

On to `CC(C)[n+]1ccn(C2=C([O-])c3ccccc3C(=O)/C2=N\S(=O)(=O)c2ccccc2)c1`, for which the AC35 was 2370 nM.

Take `COc1ccccc1-c1csc(C(NC(C)=O)c2cccc(F)c2)n1` (centres undefined): the AC35 was 590 nM.

`O=C(NC1CCCCC1)c1cccc2c1C(=O)c1ccc(-c3ccc(OC(F)(F)F)cc3)cc1S2(=O)=O`: the AC35 is 31.2 nM.

For the compound `CCN1C(=O)c2cccc3c(S(=O)(=O)Nc4ccccn4)ccc1c23`, the AC35 was 1860 nM.

Regarding `COc1ccc([C@@H]2[C@@H]3C(=O)N(C(C)(C)C)C(=O)[C@@H]3[C@]3(Cc4ccccc4)C(=O)N(c4cccc(Br)c4)C(=O)N23)cc1`, the AC35 was 762 nM.

For the compound `Cc1cc(=O)[nH]c2c(C)cc(S(=O)(=O)N3CCCCC3)cc12`, the AC35 was 411 nM.

As to `OCC1OC(n2ccc3c(SCc4ccccc4)ncnc32)C(O)C1O` (centres undefined), the AC35 is 148 nM.

In the case of `COc1cc2c(cc1OC)C(=O)N1[C@H]3c4cc(Cl)ccc4OC[C@@H]3[C@H](c3ccccc3)[C@]1(C)C(=O)N2`, the AC35 was 449 nM.

As to `Cc1ccc(S(=O)(=O)NC2=C(N3CCN(Cc4ccccc4)CC3)C(=O)c3ccccc3C2=O)cc1`, the AC35 is 2540 nM.

For `CCC(Cc1ccccc1)NC(=O)c1ccc2nc(N3CCOCC3)sc2c1` (centres undefined), the AC35 was 480 nM.

On to `CC(=O)Nc1cccc(-c2ccnc3c2CC(C)(C(=O)NCC2CC2)O3)c1` (centres undefined), for which the AC35 is 11500 nM.

`Cc1cccn2c(=O)c3cc(C(=O)NC4CCCCC4)n(C)c3nc12`: the AC35 is 7540 nM.

Take `COc1cc(N=Nc2cccc(S(N)(=O)=O)c2)c2ccccc2c1N`: the AC35 is 1660 nM.

As to `COc1cccc(NC(=O)CCCOc2cc(=O)n(C)c3ccccc23)c1`, the AC35 is 4630 nM.

Take `COc1cc2c(cc1OC)C(c1ccccc1)N(C(=O)c1ccccc1F)CC2` (centres undefined): the AC35 is 608 nM.

In the case of `Cc1c(Cl)cccc1Nc1nc(N)nc(CN2CCc3ccccc3C2)n1`, the AC35 was 614 nM.

On to `CC(=O)Nc1ccc2cc3ccc(NC(C)=O)cc3nc2c1`, for which the AC35 was 838 nM.

In the case of `Nc1cc2c(cc1Br)-c1c(C(=O)O)cccc1C2O` (centres undefined), the AC35 was 2680 nM.

As for `Nc1nc(-c2ccccn2)nc(N)c1Cc1ccc(Cl)cc1Cl`, the AC35 was 1480 nM.

Turning to `COc1ccc2[nH]c(C(=O)N/N=C/c3ccccc3OC)cc2c1`, the AC35 is 1170 nM.

With `COc1ccccc1CCNCc1ccc(OC)c(OCc2ccccc2)c1`, the AC35 was 1170 nM.

For the compound `CC1CN(C(=O)c2ccc(COc3ccc4ccccc4c3)o2)CC(C)O1` (centres undefined), the AC35 was 306 nM.

For `CC(C)CCNC(=O)CCCOc1cc(=O)n(C)c2ccccc12`, the AC35 was 2260 nM.

`CC(=O)Nc1ccc(CNc2ncnc3ccc(-c4c(C)noc4C)cc23)cc1`: the AC35 was 264 nM.

Regarding `Cn1c(=O)n(C)c2cc(C(=O)Nc3ccc4c(c3)OCO4)ccc21`, the AC35 was 1870 nM.

Turning to `C[C@H](CO)N1C[C@H](C)[C@@H](CN(C)S(=O)(=O)c2cccs2)Oc2c(NC(=O)Cc3ccccc3)cccc2C1=O`, the AC35 is 2960 nM.

On to `COc1cccc(C(NC(C)=O)c2nc(-c3ccc(F)cc3OC)cs2)c1` (centres undefined), for which the AC35 is 63.3 nM.

Turning to `Cc1cc(C)n(-c2nnc3n2N=C(c2c[nH]c4ccccc24)CS3)n1`, the AC35 was 28.5 nM.

Consider `COc1cc2c(cc1OC)C(c1cccs1)N(C(=S)NC(C)C)CC2` (centres undefined), for which the AC35 is 85.1 nM.

Regarding `Cc1ccc(C)c(NC(=S)NC(NC(=O)Cc2cccc3ccccc23)C(Cl)(Cl)Cl)c1` (centres undefined), the AC35 was 3550 nM.

On to `CCOc1cc(C)nc(NCc2ccccc2)n1`, for which the AC35 is 5190 nM.

As for `O=C(c1cccc(Oc2ccccc2)c1)N1CCN(c2ccccn2)CC1`, the AC35 was 2960 nM.

Turning to `C=CCOc1ccc(/C=C2\SC(N3CCCCC3)=NC2=O)cc1`, the AC35 is 8.9 nM.

Regarding `O=C(COc1ccccc1)Nc1cccc(-c2cn3cccnc3n2)c1`, the AC35 was 1080 nM.

Turning to `Cc1ccc(NC(=O)c2ccc(Cl)cc2[N+](=O)[O-])nc1`, the AC35 is 2420 nM.

Consider `CC(=O)c1ccc(Nc2nc(-c3sc(C)nc3C)cs2)cc1`, for which the AC35 was 17.3 nM.

Regarding `COC(=O)c1cc(=O)n(-c2ccc(F)cc2)c(=Nc2ccc(F)cc2)s1`, the AC35 is 25.1 nM.

Regarding `O=C(CNC(=O)c1ccc(Br)o1)Nc1cccc(-c2cnc3ccccc3n2)c1`, the AC35 was 3530 nM.

Take `COc1ccc(/C(C)=N/NC(=O)c2ccccc2OCc2ccccc2)c(OC)c1`: the AC35 is 56 nM.

For the compound `C[C@@]12C(=O)Nc3cc(Cl)ccc3C(=O)N1[C@H]1c3cc(Br)ccc3OC[C@@H]1[C@@H]2c1ccccc1`, the AC35 is 2550 nM.

With `C/C(=N\O)C(=O)C(CN1CCCCC1)CN1CCCCC1`, the AC35 was 1210 nM.

`CCn1ncc(C2=NOC(C(=O)NCc3ccccc3)C2)c1C` (centres undefined): the AC35 was 9540 nM.

With `COc1cccc(-c2nn(C)c3sc(C(=O)NCc4ccco4)cc23)c1`, the AC35 was 3350 nM.

For the compound `Cc1nnc2c(NC3CCCCC3)nc3ccccc3n12`, the AC35 was 3510 nM.

Regarding `NC1(C(=O)O)CSSC1`, the AC35 was 3050 nM.

As for `CC(=O)c1sc(Nc2cccc3ccccc23)nc1C`, the AC35 was 4070 nM.

In the case of `O=C(/C=C/c1cccc(Br)c1)c1ccc2c(c1)OCO2`, the AC35 was 951 nM.

Take `COc1ccccc1N1CCN(c2ccc3c(c2)S(=O)(=O)c2cccc(C(=O)NCC4CC4)c2C3=O)CC1`: the AC35 is 1190 nM.

`CCCCCC(O)C=CC1C(O)CC(O)C1CC=CCCCC(=O)O` (centres undefined): the AC35 is 3.82 nM.

As to `Cc1ccc2nc(SCC(=O)Nc3ccc4sc(C)nc4c3)c(C#N)cc2c1`, the AC35 is 4.83 nM.

For `CCN1C(=O)c2cccc3c(S(=O)(=O)Nc4ccccc4OC)ccc1c23`, the AC35 is 896 nM.

Consider `Cc1cccc(NC(=O)c2cnn3ccccc23)c1C`, for which the AC35 was 532 nM.

Regarding `CC(=O)c1c(C)[nH]c(C(=O)Nc2nccs2)c1C`, the AC35 was 379 nM.

`N=c1c(S(=O)(=O)c2ccc(Cl)cc2)cc2c(=O)n3ccccc3nc2n1CCc1ccccc1`: the AC35 was 564 nM.

In the case of `COc1ccccc1/C=N/NC(=O)c1cc2c(OC)c(OC)ccc2[nH]1`, the AC35 is 987 nM.

With `CC1(C(=O)NCC2CCOCC2)Cc2c(-c3cccc(C(F)(F)F)c3)ccnc2O1` (centres undefined), the AC35 was 32.5 nM.

Take `O=C(c1ncn(Cc2ccccc2)c1C(=O)N1CCN(c2ccccc2)CC1)N1CCN(c2ccccc2)CC1`: the AC35 is 1230 nM.

Consider `OCCCNc1c2ccccc2nc2ccccc12`, for which the AC35 was 4900 nM.

As for `CCc1cccc(CC)c1NC(=O)CN1C2CCCC1CC(NC(=O)Nc1cccc(OC)c1)C2` (centres undefined), the AC35 is 3140 nM.

`Cc1ccc(N2CC(C(=O)Nc3ccc(S(=O)(=O)N4CCOCC4)cc3)CC2=O)cc1Cl` (centres undefined): the AC35 is 2530 nM.

With `CC(=O)c1ccc(N2CCN(C(=O)c3cccc(Oc4ccccc4)c3)CC2)cc1`, the AC35 was 1270 nM.

In the case of `COc1ccccc1-c1c(C#N)c(N)nc2c1CCc1ccccc1-2`, the AC35 was 1110 nM.

Turning to `COc1ccc2oc(-c3ccccc3[N+](=O)[O-])cc(=O)c2c1`, the AC35 is 174 nM.

As for `Cc1ccc(-n2c(SCC(=O)NCCC3=CCCCC3)nc3n[nH]c(C)c3c2=N)cc1Cl`, the AC35 is 39.9 nM.

For the compound `CN1/C(=C/C=C(/C#N)C(N)=O)C(C)(C)c2ccccc21`, the AC35 is 7.24 nM.

Consider `COc1ccccc1-c1cc(NC=O)c2ncc(-c3cccc(C(=O)N(C)C)c3)n2c1`, for which the AC35 is 48.3 nM.

For `Cc1noc(C)c1COc1cccc(C(=O)OC(C)C(=O)Nc2ccc3c(c2)OCO3)c1` (centres undefined), the AC35 was 1600 nM.

For `COc1ccc(/C=C/C(=O)c2ccccc2)cc1COc1ccccc1F`, the AC35 was > 19500 nM (inactive).

On to `Cc1cccn2c(=O)c3cc(C(=O)N4CCC5(CC4)OCCO5)n(C)c3nc12`, for which the AC35 is 310 nM.

`CCOc1cc(N2CCOCC2)c(OCC)cc1NC(=O)c1[nH]c(C)c(C(C)=O)c1C`: the AC35 is 10.7 nM.

On to `CCCCC[C@H](O)/C=C/[C@@H]1[C@@H](C/C=C\CCCC(=O)OC)[C@@H](O)C[C@H]1O`, for which the AC35 was < 1.2 nM.

For `O=C(Nc1ccccc1N1CCOCC1)c1ccc2nc[nH]c2c1`, the AC35 was 852 nM.

For the compound `COc1ccc2c(c1)OC[C@H]1[C@H]2N2C(=O)c3cc(OC)ccc3NC(=O)[C@@]2(C)[C@H]1c1ccccc1`, the AC35 was 1080 nM.

For `CC(Nc1nc(-c2ccccc2O)nc2ccccc12)c1ccccc1` (centres undefined), the AC35 is 39.5 nM.

`O=C(NC(=C(Cl)Cl)S(=O)(=O)c1ccc(Cl)cc1)c1ccccc1`: the AC35 is 2160 nM.

For the compound `COc1cc2cnc(-c3ccccc3)cc2cc1OC`, the AC35 is 2540 nM.

For the compound `Cc1ccc(-c2cc(C(=O)NCC(c3ccccc3)N(C)C)c3ccccc3n2)o1` (centres undefined), the AC35 is 3300 nM.

For the compound `COc1cc(C(=O)N/N=C/c2ccc3c(c2)c2ccccc2n3C)ccc1O`, the AC35 is 9590 nM.

For the compound `CN(C)C(CNC(=O)CSc1nc2sc3c(c2c(=O)n1C)CCCC3)c1ccccc1` (centres undefined), the AC35 was 682 nM.

As to `O=C(NO)c1ccc(OC(F)F)cc1`, the AC35 was 1520 nM.

Regarding `O=C(c1ccc(CS(=O)c2ccccc2Cl)o1)N1CCN(c2ccccn2)CC1` (centres undefined), the AC35 is 5640 nM.

In the case of `CCCCCCn1c(=O)n2n(c1=O)[C@@H]1CN(S(=O)(=O)c3ccc(C)cc3)C[C@]1(O)[C@@H](OC(=O)NCc1ccccc1)C2`, the AC35 is 717 nM.

Take `CCOc1ncccc1C(=O)Nc1cc2c(cc1Br)OCCO2`: the AC35 is 169 nM.

`Cc1cc(=O)oc2cc(OCC(=O)N3c4ccccc4CC3C)ccc12` (centres undefined): the AC35 was 1370 nM.

Take `N#Cc1c(-c2ccc(F)cc2)c(-c2ccc(F)cc2)nn(CCO)c1=O`: the AC35 is 997 nM.

As to `NNC(=O)c1oc2nc(-c3cccs3)cc(-c3ccco3)c2c1N`, the AC35 was 2930 nM.

As to `Cc1ccc(-n2nc(C)c(/C=N/NC(=O)c3cccs3)c2Cl)cc1`, the AC35 was 55.6 nM.

On to `CC1c2cc3c(cc2CCN1C(=O)c1ccc(Br)cc1)OCCCO3` (centres undefined), for which the AC35 is 172 nM.

In the case of `CC(=O)Nc1sc(NC(=O)c2ccccc2)nc1-c1cccs1`, the AC35 is 8340 nM.

For `Cc1ccnc(NC(=O)C(Cc2ccccc2)NC(=O)c2ccccc2)c1` (centres undefined), the AC35 was 335 nM.

Take `COc1ccc2c(c1)[C@H]1[C@H](CO2)[C@H](c2ccccc2)[C@]2(C)C(=O)Nc3cc(F)c(F)cc3C(=O)N12`: the AC35 is 469 nM.

Source of the values: PubChem BioAssay AID624404 (Broad Institute, 2012).
